{
  "source": "patent US20100234464A1",
  "about": "“COMPOUNDS FOR THE TREATMENT OF METABOLIC DISORDERS” (WELLSTAT THERAPEUTICS CORPORATION, priority 2006, published 2010)",
  "test_system": "male db/db mice",
  "test": "Antidiabetic efficacy of oral compound in male db/db mice (nonfasting serum glucose and triglycerides after 14 days)",
  "type": "in vivo",
  "conditions": "for Serum triglycerides, Mean ± SEM / Serum glucose, Mean ± SD: 100 mg/kg/day oral gavage once daily for 2 weeks, nonfasting serum, N = 5 mice/group; for Serum triglycerides, Mean ± SEM: vehicle 220.8 ± 62.1; for Serum glucose, Mean ± SD: vehicle 735.0 ± 66.0; for Effect on nonfasting serum glucose relative to vehicle-treated mice (in words) / Effect on nonfasting serum triglycerides relative to vehicle-treated mice (in words): 100 mg/kg/day oral, 2 weeks",
  "excerpt": "Male db/db mice have a defect in the receptor for the appetite-regulating protein leptin and consequently develop hyperphagia, obesity, insulin resistance, hyperglycemia, and hypertriglyceridemia. Furthermore, male db/db mice undergo progressive islet failure, resulting in a transition from hyperinsulinemia to insulin deficiency.\nMale db/db mice (10 weeks old) were divided into weight-matched groups of 5 mice each. Age-matched male C57BL/6 mice were used as lean control animals. Mice received once-daily oral (gavage) doses of the vehicle (1% hydroxypropylmethylcellulose in water), Compound BI, Compound CF, or Compound DN for two weeks. Treatment groups and drug doses were as follows. • 1. Vehicle • 2. Compound BI 100 mg/kg/day • 3. Compound CF 100 mg/kg/day • 4. Compound DN 100 mg/kg/day\nNonfasting blood samples were collected after 14 days of treatment for determination of serum glucose, triglycerides, and free fatty acids.",
  "data": [
    {"smiles": "Cc1cccc(C)c1COc1cccc(CC(=O)O)c1", "note": "[Compound CF, 3-(2,6-Dimethylbenzyloxy)phenylacetic acid]", "values": [
      {"measurement": "Serum triglycerides, Mean ± SEM", "result": "90.5 ± 17.4", "unit": "mg/dL"},
      {"measurement": "Serum glucose, Mean ± SD", "result": "441.0 ± 162.0", "unit": "mg/dL"},
      {"measurement": "Effect on nonfasting serum glucose relative to vehicle-treated mice (in words)", "result": "significantly reduced"},
      {"measurement": "Effect on nonfasting serum triglycerides relative to vehicle-treated mice (in words)", "result": "significantly reduced"}
    ]},
    {"smiles": "Cc1cccc(C)c1COc1cccc(C(=O)CCC(=O)O)c1", "note": "[Compound BI, 4-(3-(2,6-Dimethylbenzyloxy)phenyl)-4-oxobutyric acid]", "values": [
      {"measurement": "Serum triglycerides, Mean ± SEM", "result": "85.8 ± 13.0", "unit": "mg/dL"},
      {"measurement": "Serum glucose, Mean ± SD", "result": "257.0 ± 57.0", "unit": "mg/dL"},
      {"measurement": "Effect on nonfasting serum glucose relative to vehicle-treated mice (in words)", "result": "significantly reduced"},
      {"measurement": "Effect on nonfasting serum triglycerides relative to vehicle-treated mice (in words)", "result": "significantly reduced"}
    ]},
    {"smiles": "O=C(O)Cc1cccc(OCc2ccc(C(F)(F)F)cc2C(F)(F)F)c1", "note": "[Compound DN, 3-(2,4-Bis(trifluoromethyl)benzyloxy)phenylacetic acid]", "values": [
      {"measurement": "Serum triglycerides, Mean ± SEM", "result": "157.2 ± 40.3", "unit": "mg/dL"},
      {"measurement": "Serum glucose, Mean ± SD", "result": "396.0 ± 84.0", "unit": "mg/dL"},
      {"measurement": "Effect on nonfasting serum glucose relative to vehicle-treated mice (in words)", "result": "significantly reduced"},
      {"measurement": "Effect on nonfasting serum triglycerides relative to vehicle-treated mice (in words)", "result": "significantly reduced"}
    ]}
  ]
}
